Laboratory results taken from PMC3440086, “Profiling Environmental Chemicals for Activity in the Antioxidant Response Element Signaling Pathway Using a High Throughput Screening Approach” (Environmental Health Perspectives, 2012).
Entries after “also recorded” stand apart in the source; their conditions may differ. Where two headings read alike, the source gives them in different places.

What was measured:
mutated ARE = assay type: cell-based; conditions: for ARE-bla mutant Efficacy: normalized to DMSO (0%) and ARE-bla maximal β-napthoflavone response (100%)
[1] = test system: antioxidant response element (ARE) signaling pathway; test: ARE-bla β-lactamase reporter gene assay in HepG2 cells (qHTS); assay type: cell-based, human; conditions: for EC50: read-out: ARE-bla EC50; for Emax: read-out: ARE-bla Efficacy
[2] = test system: Nrf2-dependent ARE transcriptional activity; test: ARE-luc luciferase reporter gene assay in HepG2 cells (qHTS); assay type: cell-based; conditions: for EC50: read-out: ARE-luc EC50; for Emax: read-out: ARE-luc Efficacy
[3] = confirmation/follow-up studies, HepG2, mean ± SD
[4] = follow-up studies, up to 46 µM, listed as 1,10-phenanthroline monohydrate
[5] = primary qHTS screening, 0.59 nM to 92 µM
[6] = confirmation/follow-up studies, HepG2, 16 hr exposure, mean ± SD
[7] = Homo sapiens, HepG2, confirmation/follow-up studies, activation of ARE reporter as % of positive control (β-napthoflavone)
[8] = Homo sapiens, confirmation/follow-up studies, HepG2, 16 hr exposure, mean ± SD
[9] = Homo sapiens, HepG2, confirmation/follow-up studies, […]
[10] = confirmation/follow-up studies, […]
[11] = follow-up studies, up to 46 µM, listed as 3-dimethylaminophenol

Molecule	ARE-bla mutant IC50 (mutated ARE; [3])	activity in ARE-bla assay (words) ([1]; follow-up studies, up to 46 µM)	ARE-luc EC50 [2, 6]	Emax [1, 7] [%]	EC50 [1, 8] [µM]	EC50 [2, 8] [µM]	other results
1,3-Dinitronapthalene	–	–	–	–	–	–	ARE-bla mutant IC50 (mutated ARE): inactive; ARE-bla Efficacy [1]: 80%; EC50 [1]: 1.2 ± 0.2 µM; ARE-luc Efficacy [2]: 180%; EC50 [2]: 16.2 ± 11 µM
O.c1cnc2c(c1)ccc1cccnc12 [1,10-Phenanthroline monohydrate]	inactive	inactive in all assays	inactive	–	–	–	activity in ARE-bla-mut assay (words) (mutated ARE; follow-up studies, up to 46 µM): inactive in all assays; activity in ARE-bla-mut assay (words) (mutated ARE; [4]): inactive across all assays; activity in ARE-bla assay (words) [1, 4]: inactive across all assays; activity in ARE-bla assay (words) [1, 5]: showed activity; activity in ARE-luc assay (words) ([2]; follow-up studies, up to 46 µM): inactive in all assays; activity in ARE-luc assay (words) [2, 4]: inactive across all assays
O=[N+]([O-])c1cc(Cl)c(Cl)c(Cl)c1Cl [2,3,4,5-Tetrachloronitrobenzene]	inactive	–	–	56	9.4 ± 3.2	27.7 ± 6.7	Emax [2, 7]: 124%
Nc1cc(Cl)ccc1O [2-Amino-4-chlorophenol]	inactive	–	–	–	7 ± 1.8	6.3 ± 2.1	Emax [1, 9]: 72%; Emax [2, 7]: 175%
Cc1cccc2sc(N)nc12 [2-Amino-4-methylbenzothiazole]	inactive	active only in the ARE-bla assay	inactive	49	10.1 ± 2.1	–	–
Cc1ccc(O)c(N)c1 [2-Amino-4-methylphenol]	inactive	–	–	76	12 ± 4.8	24 ± 7.1	Emax [2, 7]: 90%
Nc1nc2ccc([N+](=O)[O-])cc2s1 [2-Amino-6-nitrobenzothiazole]	inactive	active only in the ARE-bla assay	inactive	107	16.7 ± 9.6	–	–
Nc1ccc(N)c(Cl)c1.O=S(=O)(O)O [2-Chloro-p-phenylenediamine SO4]	inactive	–	–	–	–	–	EC50 [1, 6]: 17.1 ± 4.1 µM; ARE-bla Efficacy [1, 10]: 72%; EC50 [2, 6]: 26.5 ± 6 µM; ARE-luc Efficacy [2, 10]: 83%
Nc1cc(Cl)cc(Cl)c1 [3,5-Dichloroaniline]	inactive	–	inactive	–	–	–	ARE-bla EC50 [1, 6]: inactive
CN(C)c1cccc(O)c1 [3-Dimethylaminophenol]	inactive	inactive in all assays	–	–	–	–	activity in ARE-bla-mut assay (words) (mutated ARE; follow-up studies, up to 46 µM): inactive in all assays; activity in ARE-bla assay (words) [1, 11]: inactive; activity in ARE-luc assay (words) ([2]; follow-up studies, up to 46 µM): inactive in all assays; activity in ARE-luc assay (words) [2, 11]: inactive
Nc1ccc(Cl)cc1N [4-Chloro-o-phenylenediamine]	inactive	inactive	–	–	–	27.2 ± 3.7	activity in ARE-bla assay (words) [1, 5]: showed activity; Emax [2, 9]: 111%
CCOCN(C(=O)CCl)c1c(C)cccc1CC [Acetochlor]	inactive	active; also recorded: demonstrated activity	–	86	4.7 ± 1.6	21.9 ± 5.3	activity in ARE-bla assay (words) [1, 5]: high-quality active; Emax [2, 7]: 78%; activity in ARE-luc assay (words) ([2]; follow-up studies, up to 46 µM): active; also recorded: demonstrated activity; activity in ARE-luc assay (words) [2, 5]: high-quality active
c1ccc2c(c1)-c1cccc3c1c-2cc1ccccc13 [Benzo(b)fluoranthene]	–	–	–	–	5.9 ± 3	1.3 ± 1	activity in ARE-bla-mut assay (words) (mutated ARE): may exhibit autofluorescence; ARE-bla mutant Efficacy (mutated ARE; confirmation/follow-up studies): 134%; Emax [1, 9]: 136%; Emax [2, 9]: 19%
c1ccc2cc3c(cc2c1)-c1cccc2cccc-3c12 [Benzo(k)fluoranthene]	–	–	–	–	1.6 ± 0.7	4.9 ± 2.2	activity in ARE-bla-mut assay (words) (mutated ARE): may exhibit autofluorescence; ARE-bla mutant Efficacy (mutated ARE; confirmation/follow-up studies): 160%; Emax [1, 9]: 114%; Emax [2, 9]: 103%
CC(C)(c1ccc(O)cc1)c1ccc(O)cc1 [Bisphenol A]	inactive	–	inactive	48	12.5 ± 5.6	–	–
[Cd+2].[Cl-].[Cl-] [Cadmium II chloride]	–	–	–	–	–	–	ARE-bla mutant IC50 (mutated ARE): inactive; ARE-bla EC50 [1]: inactive; ARE-luc Efficacy [2]: 446; EC50 [2]: 1.1 ± 0.1 µM
